# Data from PubChem BioAssay (NCI).
#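 Abbreviation: GI50, concentration required for 50% inhibition of growth. Definition used: TGI = concentration required for complete inhibition of growth.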
# Tests used:
# Experiment in all cases: inhibition of tumour cell growth, NCI panel, 384-well format
# [1] = tested on: SN12C renal
# [2] = tested on: A498 renal
# [3] = tested on: OVCAR-8 ovarian
# [4] = tested on: NCI-H23 lung
# [5] = tested on: SNB-75 CNS
# [6] = tested on: MALME-3M melanoma
# [7] = tested on: COLO 205 colon
# [8] = tested on: PC-3 prostate
# [9] = tested on: DU-145 prostate
# [10] = tested on: A549 NSCLC
# [11] = tested on: NCI-H226 lung
# [12] = tested on: MDA-MB-468 breast
# [13] = tested on: HCT-15 colon
# [14] = tested on: NCI-H460 NSCLC
# [15] = tested on: SNB-19 CNS
# [16] = tested on: EKVX NSCLC
# [17] = tested on: SF-268 CNS
# [18] = tested on: KM12 colon
# [19] = tested on: SR leukemia
# [20] = tested on: SF-539 CNS
# [21] = tested on: MDA-MB-435 melanoma
# [22] = tested on: NCI-H522 lung
# [23] = tested on: TK-10 renal
# [24] = tested on: OVCAR-3 ovarian
# [25] = tested on: MOLT-4 leukemia
# [26] = tested on: UACC-257 melanoma
# [27] = tested on: UO-31 renal
# [28] = tested on: SK-MEL-28 melanoma
# [29] = tested on: HS 578T breast
# [30] = tested on: CCRF-CEM leukemia
# [31] = tested on: SK-MEL-5 melanoma
# [32] = tested on: HL-60(TB) leukemia
# [33] = tested on: OVCAR-4 ovarian
# [34] = tested on: UACC-62 melanoma
# [35] = tested on: OVCAR-5 ovarian
# [36] = tested on: K-562 leukemia
# [37] = tested on: HOP-92 NSCLC
# [38] = tested on: 786-0 renal
# [39] = tested on: SF-295 CNS
# [40] = tested on: BT-549 breast
# [41] = tested on: SW-620 colon
# [42] = tested on: IGROV1 ovarian
# [43] = tested on: NCI/ADR-RES ovarian
# [44] = tested on: MDA-MB-231 breast
# [45] = tested on: CAKI-1 renal
# [46] = tested on: LOX IMVI melanoma
# [47] = tested on: HCC-2998 colon
# [48] = tested on: ACHN renal
# [49] = tested on: MCF7 breast
# [50] = tested on: NCI-H322M lung
# [51] = tested on: T-47D breast
# [52] = tested on: M14 melanoma
# [53] = tested on: HT29 colon
# [54] = tested on: HOP-62 NSCLC
# [55] = tested on: SK-OV-3 ovarian
# [56] = tested on: RPMI-8226 leukemia
# [57] = tested on: RXF 393 renal
smiles,measurement,setting,value
C[C@H]1COCCN1c1nc(-c2cnc(N)cc2C(F)F)nc(N2CCOCC2)n1,GI50,[1],138 nM
same,TGI,[1],772 nM
same,GI50,[2],49.3 nM
same,TGI,[2],447 nM
same,GI50,[3],307 nM
same,TGI,[3],> 100000 nM
same,GI50,[4],184 nM
same,TGI,[4],30700 nM
same,GI50,[5],117 nM
same,TGI,[5],810 nM
same,GI50,[6],50.7 nM
same,TGI,[6],309 nM
same,GI50,[7],201 nM
same,TGI,[7],11800 nM
same,GI50,[8],166 nM
same,TGI,[8],10100 nM
same,GI50,[9],308 nM
same,TGI,[9],> 100000 nM
same,GI50,[10],221 nM
same,TGI,[10],2750 nM
same,GI50,[11],159 nM
same,TGI,[11],649 nM
same,GI50,[12],172 nM
same,TGI,[12],487 nM
same,GI50,[13],181 nM
same,TGI,[13],30900 nM
same,GI50,[14],68.7 nM
same,TGI,[14],> 100000 nM
same,GI50,[15],2330 nM
same,TGI,[15],> 100000 nM
same,GI50,[16],189 nM
same,TGI,[16],780 nM
same,GI50,[17],311 nM
same,TGI,[17],36100 nM
same,GI50,[18],294 nM
same,TGI,[18],12000 nM
same,GI50,[19],125 nM
same,TGI,[19],370 nM
same,GI50,[20],323 nM
same,TGI,[20],5880 nM
same,GI50,[21],275 nM
same,TGI,[21],2520 nM
same,GI50,[22],206 nM
same,TGI,[22],1630 nM
same,GI50,[23],254 nM
same,TGI,[23],2010 nM
same,GI50,[24],270 nM
same,TGI,[24],2930 nM
same,GI50,[25],103 nM
same,TGI,[25],406 nM
same,GI50,[26],389 nM
same,TGI,[26],3210 nM
same,GI50,[27],321 nM
same,TGI,[27],> 100000 nM
same,GI50,[28],146 nM
same,TGI,[28],890 nM
same,GI50,[29],52.8 nM
same,TGI,[29],273 nM
same,GI50,[30],224 nM
same,TGI,[30],1680 nM
same,GI50,[31],143 nM
same,TGI,[31],417 nM
same,GI50,[32],289 nM
same,TGI,[32],2820 nM
same,GI50,[33],115 nM
same,TGI,[33],585 nM
same,GI50,[34],227 nM
same,TGI,[34],1490 nM
same,GI50,[35],163 nM
same,TGI,[35],1170 nM
same,GI50,[36],548 nM
same,TGI,[36],> 100000 nM
same,GI50,[37],102 nM
same,TGI,[37],462 nM
same,GI50,[38],385 nM
same,TGI,[38],6130 nM
same,GI50,[39],106 nM
same,TGI,[39],463 nM
same,GI50,[40],175 nM
same,TGI,[40],758 nM
same,GI50,[41],554 nM
same,TGI,[41],> 100000 nM
same,GI50,[42],53.8 nM
same,TGI,[42],265 nM
same,GI50,[43],399 nM
same,TGI,[43],> 100000 nM
same,GI50,[44],248 nM
same,TGI,[44],> 100000 nM
same,GI50,[45],196 nM
same,TGI,[45],3960 nM
same,GI50,[46],242 nM
same,TGI,[46],1170 nM
same,GI50,[47],423 nM
same,TGI,[47],12400 nM
same,GI50,[48],247 nM
same,TGI,[48],3830 nM
same,GI50,[49],45.3 nM
same,TGI,[49],3080 nM
same,GI50,[50],203 nM
same,TGI,[50],10900 nM
same,GI50,[51],19.7 nM
same,TGI,[51],106 nM
same,GI50,[52],191 nM
same,TGI,[52],27400 nM
same,GI50,[53],263 nM
same,TGI,[53],55300 nM
same,GI50,[54],261 nM
same,TGI,[54],4410 nM
same,GI50,[55],129 nM
same,TGI,[55],441 nM
same,GI50,[56],30.7 nM
same,TGI,[56],155 nM
same,GI50,[57],315 nM
same,TGI,[57],2880 nM
